pIC50: −log10 of the molar value.
Biological target: EP2 subtype of the human PGE2 receptor (hEP2 receptor) (Homo sapiens, UniProt P43116)
Test: cAMP antagonism test, human prostaglandin E2 (subtype EP2) receptor signal
Assay type: cell-based
Text: 1. Detection of Antagonism to the Human Prostaglandin E2 (Subtype EP2) Receptor Signal
The binding of PGE2 to the EP2 subtype of the human PGE2 receptor induces the activation of membrane-located adenylate cyclases and leads to the formation of cAMP. In the presence of the phosphodiesterase inhibitor IBMX, the cAMP accumulated owing to this stimulation and released by cell lysis is used in a competitive detection method. In this test, the cAMP present in the lysate competes with a fluorescence-labelled cAMP (cAMP-d2) for binding to an Eu cryptate-labelled anti-cAMP antibody.
In the absence of cellular cAMP, a maximal signal is produced, which is attributable to the binding of this cAMP-d2 molecule to the antibody. After excitation of the […] at 337 nm, there is a fluorescence resonance energy transfer (FRET) to the Eu cryptate molecules of the anti-cAMP antibody (labelled therewith), followed by a long-lasting emission signal at 665 nm (and at […]). Both signals are measured in a suitable measurement instrument with a time delay, i.e. after decay of the background fluorescence. Any increase in the low FRET signal caused by prostaglandin E2 administration (measured as well ratio change=emission665nm/emission620nm*10000) indicates the action of antagonists.
1.2.1. Test for Antagonism (Data Per Well of a 384-Well Plate):
To a test plate with the substance solutions already added (0.05 μl; 100% DMSO, concentration range from 0.8 nM-16.5 nM) were added 4 μl of a cAMP-d2/cell suspension (625000 cells/ml). After a 20-minute preincubation at room temperature (RT), 2 μl of a 3×PGE2 solution (1.5 nM, in PBS-IBMX) were added and incubated in the presence of the agonist for a further 60 mins at RT (volume: […]). Next the reaction was stopped by addition of 2 μl of lysis buffer and incubated for a further 20 mins at RT before the actual measurement (volume: ˜8 μl).

EP2 subtype of the human PGE2 receptor (hEP2 receptor), sequence (P43116 whole entry): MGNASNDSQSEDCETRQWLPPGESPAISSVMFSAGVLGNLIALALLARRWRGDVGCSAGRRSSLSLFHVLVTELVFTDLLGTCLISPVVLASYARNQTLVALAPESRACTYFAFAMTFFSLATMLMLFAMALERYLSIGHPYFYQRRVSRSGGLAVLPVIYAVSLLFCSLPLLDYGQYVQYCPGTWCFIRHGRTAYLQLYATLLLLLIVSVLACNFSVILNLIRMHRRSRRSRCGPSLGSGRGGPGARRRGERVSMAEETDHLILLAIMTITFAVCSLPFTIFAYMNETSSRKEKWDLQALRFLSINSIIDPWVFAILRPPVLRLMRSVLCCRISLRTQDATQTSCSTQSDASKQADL

Row | Structure (SMILES) | pIC50
1 | Cc1c(C(=O)NCCOC(C)(C)C)ccc2nn(CC3CCN(C(=O)c4ccc(Cl)cc4)CC3)cc12 [Example E81, N-(2-tert-butoxyethyl)-2-{[1-(4-chlorobenzoyl)piperidin-4-yl]methyl}-4-methyl-2H-indazole-5-carboxamide] | < 7.30
2 | COCCNC(=O)c1ccc2nn(CC3CCN(C(=O)c4ccc(C#N)cc4)CC3)cc2c1C [Example E31, 2-{[1-(4-cyanobenzoyl)piperidin-4-yl]methyl}-N-(2-methoxyethyl)-4-methyl-2H-indazole-5-carboxamide] | < 7.30
3 | COCCNC(=O)c1ccc2nn(CC3CCN(C(=O)c4ccc(OC5CCCC5)cc4)CC3)cc2c1C [Example E29, 2-({1-[4-(cyclopentyloxy)benzoyl]piperidin-4-yl}methyl)-N-(2-methoxyethyl)-4-methyl-2H-indazole-5-carboxamide] | < 7.30
4 | Cc1c(C(=O)NCCOC(C)C)ccc2nn(CC3CCN(C(=O)c4ccc(-c5ccc(F)cc5)cc4)CC3)cc12 [Example E75, 2-({1-[(4′-fluorobiphenyl-4-yl)carbonyl]piperidin-4-yl}methyl)-N-(2-isopropoxyethyl)-4-methyl-2H-indazole-5-carboxamide] | < 7.30
5 | COCCNC(=O)c1ccc2nn(CC3CCN(C(=O)c4cccc(Cl)c4)CC3)cc2c1C [Example E27, 2-{[1-(3-chlorobenzoyl)piperidin-4-yl]methyl}-N-(2-methoxyethyl)-4-methyl-2H-indazole-5-carboxamide] | < 7.30
6 | COCCNC(=O)c1ccc2nn(CC3CCN(C(=O)c4ccc(-c5ccc(F)cc5)cc4F)CC3)cc2c1C [Example E40, 2-({1-[(3,4′-difluorobiphenyl-4-yl)carbonyl]piperidin-4-yl}methyl)-N-(2-methoxyethyl)-4-methyl-2H-indazole-5-carboxamide] | < 7.30
7 | COCCNC(=O)c1ccc2nn(CC3CN(C(=O)c4ccc(Oc5ccc(C(F)(F)F)cn5)cc4)C3)cc2c1C [Example E117, N-(2-methoxyethyl)-4-methyl-2-{[1-(4-{[5-(trifluoromethyl)pyridin-2-yl]oxy}benzoyl)-azetidin-3-yl]methyl}-2H-indazole-5-carboxamide] | < 7.30
8 | COCCNC(=O)c1ccc2nn(CC3CCN(C(=O)c4ccc(C5CC5)cc4)CC3)cc2c1C [Example E19, 2-{[1-(4-cyclopropylbenzoyl)piperidin-4-yl]methyl}-N-(2-methoxyethyl)-4-methyl-2H-indazole-5-carboxamide] | < 7.30
9 | Cc1c(C(=O)NCC(F)(F)F)ccc2nn(CC3CCN(C(=O)c4ccc(Oc5ccc(C(F)(F)F)cn5)cc4)CC3)cc12 [Example E127, 4-methyl-N-(2,2,2-trifluoroethyl)-2-{[1-(4-{[5-(trifluoromethyl)pyridin-2-yl]oxy}-benzoyl)piperidin-4-yl]methyl}-2H-indazole-5-carboxamide] | < 7.30
10 | COCCNC(=O)c1ccc2nn(CC3CCN(C(=O)c4ccc(C5CCCCC5)cc4)CC3)cc2c1C [Example E157, 2-{[1-(4-cyclohexylbenzoyl)piperidin-4-yl]methyl}-N-(2-methoxyethyl)-4-methyl-2H-indazole-5-carboxamide] | < 7.30
11 | COCCNC(=O)c1ccc2nn(CC3CCN(C(=O)c4ccc(F)cc4)CC3)cc2c1C [Example E21, 2-{[1-(4-fluorobenzoyl)piperidin-4-yl]methyl}-N-(2-methoxyethyl)-4-methyl-2H-indazole-5-carboxamide] | < 7.30
12 | Cc1c(C(=O)NCCOC(C)C)ccc2nn(CC3CCN(C(=O)c4ccc(Cl)cc4)CC3)cc12 [Example E71, 2-{[1-(4-chlorobenzoyl)piperidin-4-yl]methyl}-N-(2-isopropoxyethyl)-4-methyl-2H-indazole-5-carboxamide] | < 7.30
13 | COCCNC(=O)c1ccc2nn(CC3CN(C(=O)c4ccc(Cl)cc4)C3)cc2c1C [Example E87, 2-{[1-(4-chlorobenzoyl)azetidin-3-yl]methyl}-N-(2-methoxyethyl)-4-methyl-2H-indazole-5-carboxamide] | < 7.30
14 | Cc1c(C(=O)NCC(F)(F)F)ccc2nn(CC3CCN(C(=O)c4ccc(Oc5ccc(C(F)(F)F)nc5)cc4)CC3)cc12 [Example E128, 4-methyl-N-(2,2,2-trifluoroethyl)-2-{[1-(4-{[6-(trifluoromethyl)pyridin-3-yl]oxy}-benzoyl)piperidin-4-yl]methyl}-2H-indazole-5-carboxamide] | < 7.30

Next, values leading:

Row | pIC50 | Structure (SMILES)
15 | < 7.30 | COCCNC(=O)c1ccc2nn(CC3CCN(C(=O)c4ccc(-c5ccc(C(C)(C)O)cc5)cc4)CC3)cc2c1C [Example E201, 2-[(1-{[4′-(2-hydroxypropan-2-yl)biphenyl-4-yl]carbonyl}piperidin-4-yl)methyl]-N-(2-methoxyethyl)-4-methyl-2H-indazole-5-carboxamide]
16 | < 7.30 | COCCNC(=O)c1ccc2nn(CC3CCN(C(=O)c4ccc(SC(F)(F)F)cc4)CC3)cc2c1C [Example E55, N-(2-methoxyethyl)-4-methyl-2-[(1-{4-[(trifluoromethyl)sulphanyl]benzoyl}piperidin-4-yl)methyl]-2H-indazole-5-carboxamide]
17 | < 7.30 | Cc1c(C(=O)NCCOCC(F)(F)F)ccc2nn(CC3CCN(C(=O)c4ccc(C(F)(F)F)cc4)CC3)cc12 [Example E68, 4-methyl-N-[2-(2,2,2-trifluoroethoxy)ethyl]-2-({1-[4-(trifluoromethyl)benzoyl]-piperidin-4-yl}methyl)-2H-indazole-5-carboxamide]
18 | < 7.30 | COCCNC(=O)c1ccc2nn(CC3CCN(C(=O)c4ccc(-c5ccccc5)c(F)c4)CC3)cc2c1C [Example E47, 2-({1-[(2-fluorobiphenyl-4-yl)carbonyl]piperidin-4-yl}methyl)-N-(2-methoxyethyl)-4-methyl-2H-indazole-5-carboxamide]
19 | < 7.30 | COCCNC(=O)c1ccc2nn(CC3CCN(C(=O)c4cccc(C)c4)CC3)cc2c1C [Example E26, N-(2-methoxyethyl)-4-methyl-2-{[1-(3-methylbenzoyl)piperidin-4-yl]methyl}-2H-indazole-5-carboxamide]
20 | < 7.30 | COCCNC(=O)c1ccc2nn(CC3CCN(C(=O)c4ccc(C(F)F)cc4)CC3)cc2c1C [Example E30, 2-({1-[4-(difluoromethyl)benzoyl]piperidin-4-yl}methyl)-N-(2-methoxyethyl)-4-methyl-2H-indazole-5-carboxamide]
21 | < 7.30 | COCCNC(=O)c1ccc2nn(CC3CCN(C(=O)c4ccc(-c5ccc(Cl)cc5OC)cc4)CC3)cc2c1C [Example E194, 2-({1-[(4′-chloro-2′-methoxybiphenyl-4-yl)carbonyl]piperidin-4-yl}methyl)-N-(2-methoxyethyl)-4-methyl-2H-indazole-5-carboxamide]
22 | < 7.30 | COCCNC(=O)c1ccc2nn(CC3CN(C(=O)c4ccc(Cl)c(C(F)(F)F)c4)C3)cc2c1C [Example E93, 2-({1-[4-chloro-3-(trifluoromethyl)benzoyl]azetidin-3-yl}methyl)-N-(2-methoxyethyl)-4-methyl-2H-indazole-5-carboxamide]
23 | < 7.30 | COCCNC(=O)c1ccc2nn(CC3CCN(C(=O)c4ccc(-c5ccc(F)cc5F)cc4)CC3)cc2c1C [Example E46, 2-({1-[(2′,4′-difluorobiphenyl-4-yl)carbonyl]piperidin-4-yl}methyl)-N-(2-methoxy-ethyl)-4-methyl-2H-indazole-5-carboxamide]
24 | < 7.30 | COCCNC(=O)c1ccc2nn(CC3CCN(C(=O)c4ccc(-c5ccc(Cl)cc5F)cc4)CC3)cc2c1C [Example E196, 2-({1-[(4′-chloro-2′-fluorobiphenyl-4-yl)carbonyl]piperidin-4-yl}methyl)-N-(2-methoxy-ethyl)-4-methyl-2H-indazole-5-carboxamide]
25 | < 7.30 | Cc1c(C(=O)NCCOCC2CC2)ccc2nn(CC3CN(C(=O)c4ccc(-c5ccc(F)cc5)cc4)C3)cc12 [Example E107, N-[2-(cyclopropylmethoxy)ethyl]-2-({1-[(4′-fluorobiphenyl-4-yl)carbonyl]azetidin-3-yl}methyl)-4-methyl-2H-indazole-5-carboxamide]
26 | < 7.30 | COCCNC(=O)c1ccc2nn(CC3CCN(C(=O)c4ccc(-c5cncc(C(F)(F)F)c5)cc4)CC3)cc2c1C [Example E200, N-(2-methoxyethyl)-4-methyl-2-[(1-{4-[5-(trifluoromethyl)pyridin-3-yl]benzoyl}-piperidin-4-yl)methyl]-2H-indazole-5-carboxamide]
27 | < 7.30 | COCCNC(=O)c1ccc2nn(CC3CCN(C(=O)c4ccc(-c5ccc(F)cc5C)cc4)CC3)cc2c1C [Example E189, 2-({1-[(4′-fluoro-2′-methylbiphenyl-4-yl)carbonyl]piperidin-4-yl}methyl)-N-(2-methoxyethyl)-4-methyl-2H-indazole-5-carboxamide]
28 | < 7.30 | COCCNC(=O)c1ccc2nn(CC3CCN(C(=O)c4cccc(C(F)(F)F)c4)CC3)cc2c1C [Example E25]

Reference: patent US9655887B2, “Pharmaceutical composition and the use thereof, and application regime of said pharmaceutical composition for on-demand contraception” (BAYER PHARMA AKTIENGESELLSCHAFT, priority 2013, dated 2017)
